The target of this test is 5-hydroxytryptamine receptor 3A (Rattus norvegicus) (UniProt P35563). Description: The compound was tested for binding affinity against 5-hydroxytryptamine 3 receptor.

By Ki is commonly meant the equilibrium dissociation constant of an inhibitor or competing ligand from its target.

Chain of 5-hydroxytryptamine receptor 3A (Rattus norvegicus) (P35563 whole entry, looked up): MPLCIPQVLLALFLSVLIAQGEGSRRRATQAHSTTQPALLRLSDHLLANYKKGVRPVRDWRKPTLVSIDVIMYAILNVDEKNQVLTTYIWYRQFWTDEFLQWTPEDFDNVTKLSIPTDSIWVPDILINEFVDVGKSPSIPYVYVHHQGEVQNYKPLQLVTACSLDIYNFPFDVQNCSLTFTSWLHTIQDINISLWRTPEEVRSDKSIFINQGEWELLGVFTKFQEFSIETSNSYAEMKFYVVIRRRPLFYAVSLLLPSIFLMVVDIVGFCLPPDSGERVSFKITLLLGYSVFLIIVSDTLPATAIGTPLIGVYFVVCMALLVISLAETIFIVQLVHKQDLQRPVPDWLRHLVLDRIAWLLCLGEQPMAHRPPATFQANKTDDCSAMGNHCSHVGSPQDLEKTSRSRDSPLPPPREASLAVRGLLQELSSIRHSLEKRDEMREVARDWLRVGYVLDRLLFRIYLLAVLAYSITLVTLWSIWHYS

Compound `COc1ccccc1N1CCC(CNCC2COc3ccc(Cl)cc3O2)CC1` (stereo unspecified) registered a Ki above 1000 nM.

Values taken from ChEMBL document CHEMBL1132360, “N-Substituted (2,3-dihydro-1,4-benzodioxin-2-yl)methylamine derivatives as D(2) antagonists/5-HT(1A) partial agonists with potential as atypical antipsychotic agents” (J Med Chem, 1999).
